These results are taken from patent US20130045995A1 (priority 2010, published 2013).

Like-named read-outs stand apart in the source and are kept apart here.

A short description of series [1]: Measurement of logP values by HPLC on reversed phase columns (EEC directive 79/831 Annex V.A8). Type of series: physicochemical. The following applies: for chromatographic logP: reversed-phase HPLC column; for Log P: pH 2.7, 0.1% formic acid in water / acetonitrile. On the procedure:
Measurement of logP values was performed according EEC directive 79/831 Annex V.A8 by HPLC (High Performance Liquid Chromatography) on reversed phase columns with the following methods: […]

Another series deals with Plasmopara viticola. The series is described as follows: Plasmopara test (grapevines) / preventive. It is filed as in vivo. The following applies: 100 ppm of active ingredient, evaluated 6 days after inoculation. Here is the method: • Plasmopara Test (Grapevines)/Preventive
Solvent: 24.5 parts by weight of acetone • 24.5 parts by weight of dimethylacetamide
Emulsifier: 1 part by weight of alkylaryl polyglycol ether
To produce a suitable preparation of active compound, 1 part by weight of active compound is mixed with the stated amounts of solvent and emulsifier, and the concentrate is diluted with water to the desired concentration.
To test for preventive activity, young plants are sprayed with the preparation of active compound at the stated rate of application. After the spray coating has dried on, the plants are inoculated with an aqueous spore suspension of Plasmopara viticola and then remain for 1 day in an incubation cabinet at approximately 20° C. and a relative atmospheric humidity of 100%. The plant is subsequently placed for 4 days in a greenhouse at approximately 21° C. and a relative atmospheric humidity of approximately 90%. The plants are then misted and placed for 1 day in an incubation cabinet.
The test is evaluated 6 days after the inoculation. 0% means an efficacy which corresponds to that of the untreated control, while an efficacy of 100% means that no disease is observed.

A further series concerns Phytophthora infestans. It is filed as in vivo. The following applies: 500 ppm of active ingredient; tomato, preventive; evaluated 7 days after inoculation.

With `Cc1snnc1C(=NOCc1csc(NC(=O)C2COc3ccccc3O2)n1)c1ccccc1` (stereo not drawn) [Example 1, N-{4-[({[(5-methyl-1,2,3-thiadiazol-4-yl)(phenyl)methylene]amino}oxy)methyl]-1,3-thiazol-2-yl}-2,3-dihydro-1,4-benzodioxine-2-carboxamide], the chromatographic logP in series [1] (pH 2.7, [I1] main isomer, HPLC, pH 2.7, 0.1% formic acid, read-out: Log P) came out at 3.99; in series [1] (pH 2.7, mixture of Z and E diastereoisomers, two values, read-out: logP(HCOOH)) it was 3.99. The efficacy in the series on Plasmopara viticola came to 94%; with Phytophthora infestans it was 100%.
As to `Cc1snnc1C(=NOCc1cccc(NC(=O)C2CCc3ccccc3O2)n1)c1ccccc1` (racemic) [Example 14], the “Log P” value in series [1] (HPLC) was 4.66. Moreover, the efficacy with Phytophthora infestans is on record as 97%.
On to `Cc1snnc1C(=NOCc1csc(NC(=O)C2Cc3ccccc3O2)n1)c1ccccc1` (racemic) [Example 3], for which, in the series on Phytophthora infestans, the efficacy worked out at 100%.
For `Cc1cccc2c1OC(C(=O)Nc1nc(CON=C(c3ccccc3)c3nnsc3C)cs1)CO2` (racemic) [Example 5], the efficacy in the series with Phytophthora infestans is on record as 100%.
On to `Cc1snnc1C(=NOCc1cccc(NC(=O)C2COc3ccccc3O2)n1)c1ccccc1` (mixture of isomers) [Example 10], for which the efficacy in the series with Plasmopara viticola was found to be 98%; with Phytophthora infestans, 95%.
In turn, `Cc1snnc1C(=NOCc1cccc(NC(=O)C2CC(=O)c3cc(F)ccc3O2)n1)c1ccccc1` (mixture of isomers) [Example 16] returned an efficacy in the series with Phytophthora infestans of 95%.
Consider `Cc1snnc1C(=NOCc1cccc(NC(=O)C2CN(C)c3ccccc3O2)n1)c1ccccc1` (racemic) [Example 18], for which, in series [1] (HPLC), the “Log P” value is reported as 4.56. The efficacy in the series with Phytophthora infestans worked out at 100%.
In the case of `Cc1snnc1C(=NOCc1csc(NC(=O)C2CCc3ccccc3O2)n1)c1ccccc1` (racemic) [Example 2], in the series with Phytophthora infestans, the efficacy came to 100%.
Turning to `Cc1snnc1C(=NOCc1csc(NC(=O)C2COc3ccccc3O2)n1)c1ccccc1` (racemic) [Example 6], the efficacy in the series on Plasmopara viticola was found to be 77%; in the series with Phytophthora infestans, 100%.
On to `Cc1cccc2c1OC(C(=O)Nc1cccc(CON=C(c3ccccc3)c3nnsc3C)n1)CO2` (racemic) [Example 12], for which the “Log P” value in series [1] (HPLC) amounted to 4.73. Further, in the series with Phytophthora infestans, the efficacy stood at 95%.
Take `Cc1snnc1C(=NOCc1cccc(NC(=O)C2COc3ccccc3O2)n1)c1ccccc1` (racemic) [Example 13]: in the series on Phytophthora infestans, the efficacy was 100%.
As for `Cc1snnc1C(=NOCc1csc(NC(=O)C2CC(=O)c3cc(F)ccc3O2)n1)c1ccccc1` (mixture of isomers) [Example 7], in series [1] (HPLC), the “Log P” value is 3.72. Besides, the efficacy in the series with Phytophthora infestans was found to be 98%.
Turning to `Cc1snnc1C(=NOCc1cccc(NC(=O)C2Cc3ccccc3O2)n1)c1ccccc1` (racemic) [Example 15], the efficacy in the series on Plasmopara viticola was 74%; in the series with Phytophthora infestans, 100%.
The compound `Cc1snnc1C(=NOCc1csc(NC(=O)C2CN(C)c3ccccc3O2)n1)c1ccccc1` (racemic) [Example 17] gave an efficacy with Phytophthora infestans of 97%.
